The values below come from ChEMBL document CHEMBL4665772, “Secoiridoids and Iridoids from Morinda asteroscepa” (J Nat Prod, 2020).

SMILES strings stand for the structures. The source made the active and inactive calls. The rule behind the calls is not given here.

In this test the test system is Plasmodium falciparum. The test can be described thus: Antimalarial activity against Plasmodium falciparum 3D7 at 10 uM. It counts as functional, organism-based.

As for `COC(=O)[C@@H](CO)[C@H]1[C@H](O)C[C@](C)(OC(C)=O)[C@H]1C(=O)O`, the outcome was inactive.
As to `COC(=O)[C@@H]1COC(=O)[C@H]2[C@@H]1[C@@H](O)C[C@@]2(C)OC(C)=O`, the result was inactive.
Regarding `COC(=O)C1=CO[C@@H](O[C@@H]2O[C@H](CO)[C@@H](O)[C@H](O)[C@H]2O)[C@H]2[C@@H]1[C@H](O)C[C@]2(C)OC(C)=O`, the outcome was inactive.
On to `COC(=O)[C@@H](CO)[C@H]1[C@H](O)C[C@](C)(O)[C@H]1C(=O)O`, for which the result was inactive.
